Our source for the IC50 values is US10821115B2, “Compounds that inhibit Mcl-1 protein” (priority 2017, dated 2020).

Read-outs that look alike come from different tables or passages of the source.

The target of experiment [1] is recombinant human Mcl-1 (residues 171-327) / Bim interaction (Homo sapiens (Human), UniProt Q07820). The experiment can be described thus: biochemical. The experiment is classed as binding. The following applies: read-out: Mcl-1 HTRF IC50.
For experiment [2], the system named is human multiple myeloma cell line, OPM-2. The experiment can be described thus: Cell viability assay (OPM-2 10 FBS), CellTiter-Glo. It is filed as cell-based. In a few lines:
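Steps: plate cells at 3000/well in 10% FBS growth medium, add serially diluted compound, incubate 16 h at 37 °C with 5% CO2, add detection reagent and read luminescence after 25 min. A 4-parameter logistic model gives IC50.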

Setting [3] is: TR-FRET, Mcl-1(171-327) / biotin-Bim (51-76).
Setting [4] is: Homo sapiens, OPM-2, 16 h, read-out: OPM-2 10% FBS IC50 IP, OPM-2 cells, 10% FBS, 16 h, CellTiter-Glo.
The mark [5] stands for this setting: 0.1 nM Mcl-1(171-327), 0.05 nM biotin-Bim (51-76).
The mark [6] stands for this setting: Homo sapiens, OPM-2, 16 h, read-out: OPM-2 10% FBS IC50 IP, OPM-2 cells, 10% FBS, 16 h incubation.

Chain of recombinant human Mcl-1 (residues 171-327) / Bim interaction (Q07820 171-327): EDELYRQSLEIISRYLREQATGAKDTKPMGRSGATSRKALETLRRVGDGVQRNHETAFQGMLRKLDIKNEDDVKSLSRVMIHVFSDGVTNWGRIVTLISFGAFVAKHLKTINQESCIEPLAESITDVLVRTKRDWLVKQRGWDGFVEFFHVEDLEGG

Regarding `C[C@@H]1[C@@H](C)C/C=C/C(O)([C@H]2OCCN(C)C2=O)[C@@H]2CC[C@H]2CN2C[C@@]3(CCCc4cc(Cl)ccc43)COc3ccc(cc32)C(=O)NS1(=O)=O` (single isomer, unassigned) [Example 100019], the half-inhibitory concentration (IC50) is 0.182 nM in experiment [1] (setting [3]) and 58 nM in experiment [2] (setting [4]).

With “(1S,3′R,6′R,7′S,8′E,11′S,12′R)-6-chloro-7′-(2-methoxyethoxy)-11′,12′-dimethyl-7′-((9aR)-octahydro-2H-pyrido[1,2-a]pyrazin-2-ylmethyl)-3,4-dihydro-2H, 15′H-spiro[naphthalene-1,22′-[20]oxa[13]thia[1,14]diazatetracyclo[14.7.2.0-3,6˜.0˜19,24˜]pentacosa[8,16,18,24]tetraen]-15′-one 13′,13′-dioxide [Example 151]”, the IC50 in experiment [1] (setting [5]) was 0.843 nM; in experiment [2] (read-out: OPM-2 10% FBS IC50 IP, OPM-2 cells, 10% FBS, 16 h incubation) it was 462 nM.

For `CCO[C@@]1(CN2CCN(C(COC)COC)CC2)/C=C/C[C@H](C)[C@@H](C)S(=O)(=O)NC(=O)c2ccc3c(c2)N(C[C@@H]2CC[C@H]21)C[C@@]1(CCCc2cc(Cl)ccc21)CO3` [Example 111, (1S,3′R,6′R,7′S,8′E,11′S,12′R)-6-chloro-7′-ethoxy-7′-((4-(2-methoxy-1-(methoxymethyl)ethyl)-1-piperazinyl)methyl)-11′,12′-dimethyl-3,4-dihydro-2H,15′H-spiro[naphthalene-1,22′-[20]oxa[13]thia[1,14]diazatetracyclo [14.7.2.0~3,6~.0~19,24~]pentacosa[8,16,18,24]tetraen]-15′-one 13′,13′-dioxide], the half-maximal inhibitory concentration (IC50) in experiment [1] (setting [5]) is 0.362 nM; in experiment [2] (setting [6]) it was 301 nM.

For the compound `COCC[C@@H]1[C@@H](C)C/C=C/[C@](C=O)(OC)[C@@H]2CC[C@H]2CN2C[C@@]3(CCCc4cc(Cl)ccc43)COc3ccc(cc32)C(=O)NS1(=O)=O` [Example 100520, (1S,3′R,6′R,7′S,8′E,11′S,12′R)-6-chloro-7′-methoxy-12′-(2-methoxyethyl)-11′-methyl-15′-oxo-3,4-dihydro-2H-spiro[naphthalene-1,22′-[20]oxa[13]thia[1,14]diazatetracyclo [14.7.2.0~3,6~.0~19,24~]pentacosa[8,16,18,24]tetraene]-7′-carbaldehyde 13′,13′-dioxide], the half-inhibitory concentration (IC50) in experiment [1] (setting [3]) amounted to 0.549 nM; in experiment [2] (setting [4]), 1690 nM.

Consider `C[C@@H]1[C@@H](C)C/C=C/[C@](O)(COCCN2CCOCC2)[C@@H]2CC[C@H]2CN2C[C@@]3(CCCc4cc(Cl)ccc43)COc3ccc(cc32)C(=O)NS1(=O)=O` [Example 100356, (1S,3′R,6′R,7′R,8′E,11′S,12′R)-6-chloro-7′-hydroxy-11′,12′-dimethyl-7′-((2-(4-morpholinyl)ethoxy)methyl)-3,4-dihydro-2H,15′H-spiro[naphthalene-1,22′-[20]oxa[13]thia[1,14]diazatetracyclo [14.7.2.0~3,6~.0~19,24~]pentacosa[8,16,18,24]tetraen]-15′-one 13′,13′-dioxide], for which the 50% inhibitory concentration (IC50) amounted to 0.084 nM in experiment [1] (setting [3]) and 71 nM in experiment [2] (setting [4]).

`C[C@@H]1[C@@H](C)CCC[C@@]2(CCO2)[C@@H]2CC[C@H]2CN2C[C@@]3(CCCc4cc(Cl)ccc43)COc3ccc(cc32)C(=O)NS1(=O)=O` [Example 100228, (1S,3′R,6′R,7′R,11′S,12′R)-6-chloro-11′,12′-dimethyl-3,4-dihydro-2H,15′H-dispiro[naphthalene-1,22′-[20]oxa[13]thia[1,14]diazatetracyclo [14.7.2.0~3,6~.0~19,24~]pentacosa[16,18,24]triene-7′,2″-oxetan]-15′-one 13′,13′-dioxide]: the concentration for half-maximal inhibition (IC50) worked out at 0.558 nM in experiment [1] (setting [3]) and 3300 nM in experiment [2] (setting [4]).

As to `CO[C@]1(CC(=O)N2CC[C@@H](N(C)C)C2)/C=C/C[C@H](C)[C@@H](C)S(=O)(=O)NC(=O)c2ccc3c(c2)N(C[C@@H]2CC[C@H]21)C[C@@]1(CCCc2cc(Cl)ccc21)CO3` [Example 100317, (1S,3′R,6′R,7′R,8′E,11′S,12′R)-6-chloro-7′-(2-((3R)-3-(dimethylamino)-1-pyrrolidinyl)-2-oxoethyl)-7′-methoxy-11′,12′-dimethyl-3,4-dihydro-2H,15′H-spiro[naphthalene-1,22′-[20]oxa[13]thia[1,14]diazatetracyclo [14.7.2.0~3,6~.0~19,24~]pentacosa[8,16,18,24]tetraen]-15′-one 13′,13′-dioxide], the IC50 in experiment [1] (setting [3]) turned out to be 0.188 nM; in experiment [2] (setting [4]), 157 nM.

Consider `CO[C@@]1(CN2CCN3CCOC[C@H]3C2)/C=C/C[C@H](C)[C@@H](C)S(=O)(=O)NC(=O)c2ccc3c(c2)N(C[C@@H]2CC[C@H]21)C[C@@]1(CCCc2cc(Cl)ccc21)CO3` [Example 57, (1S,3′R,6′R,7′S,8′E,11′S,12′R)-6-chloro-7′-((9aR)-hexahydropyrazino[2,1-c][1,4]oxazin-8(1H)-ylmethyl)-7′-methoxy-11′,12′-dimethyl-3,4-dihydro-2H,15′H-spiro[naphthalene-1,22′-[20]oxa[13]thia[1,14]diazatetracyclo [14.7.2.0~3,6~.0~19,24~]pentacosa[8,16,18,24]tetraen]-15′-one 13′,13′-dioxide], for which the concentration for half-maximal inhibition (IC50) was 0.258 nM in experiment [1] (setting [5]) and 90 nM in experiment [2] (setting [6]).

Regarding `COC[C@@]1(O)CCC[C@H](C)[C@@H](C)S(=O)(=O)NC(=O)c2ccc3c(c2)N(C[C@@H]2CC[C@H]21)C[C@@]1(CCCc2cc(Cl)ccc21)CO3` [Example 100150, (1S,3′R,6′R,7′R,11′S,12′R)-6-chloro-7′-hydroxy-7′-(methoxymethyl)-11′,12′-dimethyl-3,4-dihydro-2H,15′H-spiro[naphthalene-1,22′-[20]oxa[13]thia[1,14]diazatetracyclo [14.7.2.0~3,6~.0~19,24~]pentacosa[16,18,24]trien]-15′-one 13′,13′-dioxide], the results for the IC50 in experiment [1] (setting [3]) and in experiment [2] (setting [4]) were 1.69 nM and 1430 nM, respectively.

As for `CO[C@@]1(CN2CCN3CCCC[C@@H]3C2)/C=C/C[C@H](C)[C@@H](C)S(=O)(=O)NC(=O)c2ccc3c(n2)N(C[C@@H]2CC[C@H]21)C[C@@]1(CCCc2cc(Cl)ccc21)CO3` [Example 372, (1S,3′R,6′R,7′S,8′E,11′S,12′R)-6-chloro-7′-methoxy-11′,12′-dimethyl-7′-((9aR)-octahydro-2H-pyrido[1,2-a]pyrazin-2-ylmethyl)-3,4-dihydro-2H,15′H-spiro[naphthalene-1,22′-[20]oxa[13]thia[1,14,25]triazatetracyclo [14.7.2.0~3,6~.0~19,24~]pentacosa[8,16,18,24]tetraen]-15′-one 13′,13′-dioxide], the half-maximal inhibitory concentration (IC50) in experiment [1] (setting [5]) is 0.175 nM; in experiment [2] (setting [6]) it was 85 nM.

On to `CC[C@]1(O)CCC[C@H](C)[C@@H](C)S(=O)(=O)NC(=O)c2ccc3c(c2)N(C[C@@H]2CC[C@H]21)C[C@@]1(CCCc2cc(Cl)ccc21)CO3` [Example 100076, (1S,3′R,6′R,7′S,11′S,12′R)-6-chloro-7′-ethyl-7′-hydroxy-11′,12′-dimethyl-3,4-dihydro-2H,15′H-spiro[naphthalene-1,22′-[20]oxa[13]thia[1,14]diazatetracyclo [14.7.2.0~3,6~.0~19,24~]pentacosa[16,18,24]trien]-15′-one 13′,13′-dioxide], for which the IC50 in experiment [1] (setting [3]) amounted to 9.66 nM; in experiment [2] (setting [4]) it was 2670 nM.

`C[C@@H]1[C@@H](C)C/C=C/[C@](O)(c2ccncn2)[C@@H]2CC[C@H]2CN2C[C@@]3(CCCc4cc(Cl)ccc43)COc3ccc(cc32)C(=O)NS1(=O)=O` [Example 100361, (1S,3′R,6′R,7′R,8′E,11′S,12′R)-6-chloro-7′-hydroxy-11′,12′-dimethyl-7′-(4-pyrimidinyl)-3,4-dihydro-2H,15′H-spiro[naphthalene-1,22′-[20]oxa[13]thia[1,14]diazatetracyclo [14.7.2.0~3,6~.0~19,24~]pentacosa[8,16,18,24]tetraen]-15′-one 13′,13′-dioxide]: the half-inhibitory concentration (IC50) amounted to 0.208 nM in experiment [1] (setting [3]) and 155 nM in experiment [2] (setting [4]).

On to `CO[C@@]1(CSC(C)C)/C=C/C[C@H](C)[C@@H](C)S(=O)(=O)NC(=O)c2ccc3c(c2)N(C[C@@H]2CC[C@H]21)C[C@@]1(CCCc2cc(Cl)ccc21)CO3` [Example 100441, (1S,3′R,6′R,7′S,8′E,11′S,12′R)-6-chloro-7′-methoxy-11′,12′-dimethyl-7′-((2-propanylsulfanyl)methyl)-3,4-dihydro-2H,15′H-spiro[naphthalene-1,22′-[20]oxa[13]thia[1,14]diazatetracyclo [14.7.2.0~3,6~.0~19,24~]pentacosa[8,16,18,24]tetraen]-15′-one 13′,13′-dioxide], for which the concentration for half-maximal inhibition (IC50) is 0.133 nM in experiment [1] (setting [3]) and 154 nM in experiment [2] (setting [4]).

Consider `C[C@@H]1[C@@H](C)CCC[C@]2(CO2)[C@@H]2CC[C@H]2CN2C[C@@]3(CCCc4cc(Cl)ccc43)COc3ccc(cc32)C(=O)NS1(=O)=O` (stereo in doubt) [Example 100164], for which the IC50 in experiment [1] (setting [3]) was 0.917 nM; in experiment [2] (setting [4]), 967 nM.

Take `C[C@@H]1[C@@H](C)C/C=C/[C@](O)(c2ncnn2C)[C@@H]2CC[C@H]2CN2C[C@@]3(CCCc4cc(Cl)ccc43)COc3ccc(cc32)C(=O)NS1(=O)=O` [Example 100221, (1S,3′R,6′R,7′R,8′E,11′S,12′R)-6-chloro-7′-hydroxy-11′,12′-dimethyl-7′-(1-methyl-1H-1,2,4-triazol-5-yl)-3,4-dihydro-2H,15′H-spiro[naphthalene-1,22′-[20]oxa[13]thia[1,14]diazatetracyclo [14.7.2.0~3,6~.0~19,24~]pentacosa[8,16,18,24]tetraen]-15′-one 13′,13′-dioxide]: the IC50 in experiment [1] (setting [3]) turned out to be 0.525 nM; in experiment [2] (setting [4]), 776 nM.
